Data: paper PMC7498612, “A rationally designed bicyclic peptide remodels Aβ42 aggregation in vitro and reduces its toxicity in a worm model of Alzheimer’s disease” (Scientific Reports, 2020)
Where a SMILES comes first, the peptide text is derived from it.

Assays:
Aβ42 monomers = molecular target: T1, Aβ42 monomers (Homo sapiens, UniProt P05067); test: Bio-layer interferometry (BLI) binding of DesBP to sensor-coupled Aβ42 monomers; conditions: DesBP 50 and 100 μM, 30 °C
T1 construct: the 42-residue form of the amyloid β peptide (Aβ42)
Procedure: To test for direct peptide-peptide interaction, biolayer interferometry (BLI) was performed on the Octet RED96 System (ForteBio, Menlo Park, USA). DesBP was used as interaction partner for sensor-coupled Aβ42. Coupled sensors were first dipped into ForteBio kinetics buffer (PBS, 0.1% BSA, 0.02% Tween20 and 0.05% sodium azide, pH 7.4) to establish a stable baseline, then into different concentrations of DesBP and finally in pure kinetics buffer again to monitor dissociation. Both association and dissociation processes were monitored at 30 °C over 50 and 200 s, respectively. In the data analysis, all curves were globally fit with a 1:1 binding model.

N2 worms = test: C. elegans N2 control worms motility / fitness; assay type: in vivo; conditions: same concentration of DesBP (40 μM); compared to effect on Aβ worms
Excerpt: We thus administered DesBP to Aβ worms at day 4 (D4) of adulthood, when Aβ42 aggregates are already formed, and paralysis is ongoing, and compared the resulting effects of the addition of DesBP to those observed in a control worm model, N2 (see “Materials and methods” section). […] On the other hand, the effects of the same concentration of DesBP to control N2 worms were negligible when compared to the effect observed on Aβ worms (Supplementary Fig. 12).
Media Standard conditions were used for the propagation of C. elegans. Briefly, the animals were synchronized by hypochlorite bleaching, hatched overnight in M9 (3 g/l KH2PO4, 6 g/l Na2HPO4, 5 g/l NaCl, […]) buffer, and subsequently cultured at 20 °C on nematode growth medium (NGM) (CaCl2 1 mM, MgSO4 1 mM, cholesterol 5 µg/ml, […] pH 6, Agar 17 g/L, NaCl 3 g/l, casein 7.5 g/l) plates seeded with the E. coli strain OP50. Saturated cultures of OP50 were grown by inoculating 50 mL of LB medium (tryptone 10 g/l, NaCl 10 g/l, yeast extract 5 g/l) with OP50 and incubating the culture for 16 h at 37 °C. NGM plates were seeded with bacteria by adding 350 µl of saturated OP50 to each plate and leaving the plates at 20 °C for 2–3 days. On day 3 after synchronization, the animals were placed on NGM plates containing 5-fluoro-2′deoxy-uridine (FUDR) (75 μM, unless stated otherwise) to inhibit the growth of offspring. […]

[1] = tested on: islet amyloid polypeptide, Aβ and α-synuclein; conditions: cited from earlier work
Excerpt: In this study, we apply this design strategy to generate a bicyclic peptide capable of binding Aβ42 and of interfering with its aggregation process. The aggregation of Aβ42 is a complex process resulting from the combination of different microscopic steps and involving a variety of molecular species[35],[36]. […] Therefore, some therapeutic strategies aim at decreasing the concentrations of these oligomeric species by delaying or preventing their formatio ...

Aβ42 = test: ThT fluorescence aggregation kinetics of Aβ42; assay type: biochemical; conditions: ThT assay
Procedure: In order to investigate the effects of DesBP on the aggregation of Aβ42, we carried out in vitro aggregation assays using thioflavin T (ThT) as an amyloid-specific fluorescent probe[63],[64]. We monitored fibril formation for Aβ42 at a concentration of 2 µM in the absence and presence of a range of concentrations (0.25–16 fold excess) of DesBP at 37 °C under quiescent conditions, using a highly reproducible protocol previously described. We then validated our results by means of far-UV circular dichroism (CD) and atomic force microscopy (AFM).
Monomeric Aβ42 peptide solutions were prepared by dissolving the lyophilized peptide in 6 M GuHCl. A Superdex 75 10/300 GL column (GE Healthcare) was used to purify Aβ42 monomers from Aβ42 oligomers and salt with a flow rate of 0.5 ml/min, and eluted in 20 mM sodium phosphate buffer (pH 8) with 200 μM EDTA. By collecting the centres of the peaks, the monomeric Aβ42 concentrations were determined from the integrated peak area with ε280 = 1,495 L mol^−1 cm^−1. Aβ42 monomers were then diluted to the target concentration with buffer and 20 μM ThT was added from a 1 mM stock. […] Assays were carried out at 37 °C under quiescent conditions in a plate reader (Fluostar Optima; BMG Labtech). ThT fluorescence was measured through the bottom of the plate with 440 nm excitation and 480 nm emission filters, with five repeats per sample. […]

Question: Which koff (Aβ42 monomers; pH 7.4, single-exponential fit, read-out: dissociation rate kd) does the source give for `CC[C@H](C)[C@@H]1NC(=O)CNC(=O)[C@H](CC(C)C)NC(=O)[C@H](CCCCN)NC(=O)[C@@H](NC(=O)[C@H](C)NC(=O)[C@H](C)NC(=O)[C@@H](N)CCCNC(=N)N)CSCc2cc3cc(c2)CSC[C@H](NC(=O)[C@H](C)NC(=O)[C@H](CCCCN)NC1=O)C(=O)N[C@@H]([C@@H](C)O)C(=O)N[C@@H](CO)C(=O)N[C@@H](C(C)C)C(=O)N[C@@H](Cc1ccc(O)cc1)C(=O)N[C@@H](Cc1c[nH]cn1)C(=O)N[C@@H](C)C(=O)N[C@H](C(=O)NCC(=O)NCC(=O)N[C@@H](CCCCN)C(=O)N[C@@H](CCCNC(=N)N)C(=O)N[C@@H](CCCNC(=N)N)C(=O)O)CSC3` [DesBP] (HELM PEPTIDE1{R.A.A.C.K.L.G.I.K.A.C.T.S.V.Y.H.A.C.G.G.K.R.R}|CHEM1{[c1c(C[*:1])cc(C[*:3])cc1C[*:2]]}$PEPTIDE1,CHEM1,4:R3-1:R1|PEPTIDE1,CHEM1,11:R3-1:R2|PEPTIDE1,CHEM1,18:R3-1:R3$$$V2.0) here?
Answer: 0.06 ± 0.002 s⁻¹

Question: And the Kd (Aβ42 monomers; Octet RED96, kinetics buffer PBS, 0.1% BSA, 0.02% Tween20, pH 7.4, association 50 s, dissociation 200 s, global fit 1:1 binding model, read-out: dissociation constant (KD))?
Answer: 640 ± 260 µM

Question: And the “effect on control N2 worms” value (N2 worms)?
Answer: negligible

Question: Which “modulation of aggregation process” value [1] does the source give for `O=C(O[C@@H]1Cc2c(O)cc(O)cc2O[C@@H]1c1cc(O)c(O)c(O)c1)c1cc(O)c(O)c(O)c1` [EGCG, epigallocatechin gallate] here?
Answer: redirecting them towards the formation of non-toxic aggregates

Question: For `Cc1cc(C)cc(C)c1` [TMB, 1,3,5-trimethylbenzene], which “effect on Aβ42 aggregation (control compounds)” value (Aβ42; Supplementary Fig. 7) is on record?
Answer: slightly delayed the nucleation step of Aβ42 aggregation

Question: What about the “magnitude of ThT fluorescence (control compound)” value (Aβ42; Supplementary Fig. 7b) of the same compound?
Answer: did not show significant changes on the magnitude of ThT fluorescence

Question: Which “modulation of aggregation process” value [1] does the source give for `CC(C)[C@@H](CC[C@@H](C)[C@H]1CC[C@H]2[C@@H]3[C@H](O)C[C@H]4C[C@@H](NCCCNCCCCNCCCN)CC[C@]4(C)[C@H]3CC[C@]12C)OS(=O)(=O)O` [trodusquemine] here?
Answer: redirecting them towards the formation of non-toxic aggregates
